Reference: patent publication US8557812B2, “Small molecule inhibitors of anti-apoptotic BCL-2 family members and the uses thereof” (The Regents of the University of Michigan, priority 2004, dated 2013)

biological target: Bcl-2 (Homo sapiens, UniProt P10415); test: Fluorescence polarization in vitro Bcl-2 binding assay
Experimental: Bcl-2 used in this assay is a recombinant His-fused soluble protein. […] Inc., Research Triangle Park, N.C.). […] The unlabeled Bid peptide is used as the positive control. The Ki values were calculated using our developed equation for FP assay (Nikolovska-Coleska et al., Anal. Biochem., 2004, in press). The program for calculating a Ki value is available free of charge via the Internet at http://sw16.im.med.umich.edu/software/calc_ki/.

Sequence of Bcl-2 (P10415 92-205 limits assumed): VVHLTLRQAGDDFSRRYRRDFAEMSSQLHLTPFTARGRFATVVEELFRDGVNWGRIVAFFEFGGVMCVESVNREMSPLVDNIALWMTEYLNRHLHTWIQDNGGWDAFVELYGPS

| SMILES | IC50 [nM] |
| --- | --- |
| CN(CCCc1ccccc1)S(=O)(=O)c1cc(C(=O)N2CCc3ccc(S(=O)(=O)NCCc4ccccc4)cc3C2)c(O)c(O)c1O [TM-1206] | ≤ 1000 |
| Oc1c(Cc2ccccc2)cc(-c2ccc(CCCCCc3ccccc3)cc2)c(O)c1O [TW-1, 5-Benzyl-4′-(5-phenyl-pentyl)-biphenyl-2,3,4-triol] | > 1000 |
| CCCCCCCCCCc1ccc(-c2cc(Cc3ccccc3)c(O)c(O)c2O)cc1 [TW-2, 5-Benzyl-4′-decyl-biphenyl-2,3,4-triol] | > 1000 |
| CC(C)(C)c1ccc(-c2cc(Cc3ccccc3)c(O)c(O)c2O)cc1 [TW-3, 5-Benzyl-4′-tert-butyl-biphenyl-2,3,4-triol] | > 1000 |
| CC(C)c1cc(-c2ccc(C(C)(C)C)cc2)c(O)c(O)c1O [TW-4, 4′-tert-Butyl-5-isopropyl-biphenyl-2,3,4-triol] | > 1000 |
| CCCCCCCCCCc1ccc(-c2cc(C(C)C)c(O)c(O)c2O)cc1 [TW-5, 4′-Decyl-5-isopropyl-biphenyl-2,3,4-triol] | > 1000 |
| CCCCCCCCCCCc1ccc(-c2cc(CCCc3ccccc3)c(O)c(O)c2O)cc1 [TW-6, 5-(3-Phenyl-propyl)-4′-undecyl-biphenyl-2,3,4-triol] | > 1000 |
| CCCCCCCCCCCc1ccc(-c2cc(CCc3ccc(C(C)(C)C)cc3)c(O)c(O)c2O)cc1 [TW-7, 5-[2-(4-tert-Butyl-phenyl)-ethyl]-4′-unedcyl-biphenyl-2,3,4-triol] | > 1000 |
| CCCCCCCCCCCc1ccc(-c2cc(Cc3ccc(C(C)(C)C)cc3)c(O)c(O)c2O)cc1 [TW-8, 5-(4-Tertbutyl-benzyl)-4′-undecyl-biphenyl-2,3,4-triol] | > 1000 |
| CCCCCCCCCCCc1ccc(-c2cc(Cc3ccc(C(C)C)cc3)c(O)c(O)c2O)cc1 [TW-9, 5-(4-Isopropyl-benzyl)-4′-undecyl-biphenyl-2,3,4-triol] | > 1000 |
| Oc1c(Cc2ccccc2)cc(-c2ccc(CCCc3ccccc3)cc2)c(O)c1O [TW-11, 5-Benzyl-4′-(3-phenyl-propyl)-biphenyl-2,3,4-triol] | > 1000 |
| Oc1c(Cc2ccccc2)cc(-c2ccc(Cc3ccccc3)cc2)c(O)c1O [TW-12, 5,4′-Dibenzyl-biphenyl-2,3,4-triol] | > 1000 |
| CCCCCCCCCCCc1ccc(-c2cc(Cc3ccccc3C(C)C)c(O)c(O)c2O)cc1 [TW-14, 5-(2-Isopropyl-benzyl)-4′-undecyl-biphenyl-2,3,4-triol] | > 1000 |
| O=C(Nc1cc(S(=O)(=O)c2ccc(Cl)cc2)ccc1Cl)c1cc(Cc2ccccc2)c(O)c(O)c1O [TW-17] | > 1000 |
| O=C(Nc1ccc(Oc2ccccc2)cc1)c1cc(CCc2ccccc2)c(O)c(O)c1O [TW-20, N-(4-phenyloxy-phenyl)-2,3,4-trihydroxy-5-phenethyl-benzamide] | > 1000 |
| O=C(Nc1cccc(S(=O)(=O)c2ccccc2)c1)c1cc(CCc2ccccc2)c(O)c(O)c1O [TW-21, N-(3-Benzenesulfonyl-phenyl)-2,3,4-trihydroxy-5-phenethyl-benzamide] | > 1000 |
| CC(C)(C)c1ccc(CCc2cc(C(=O)Nc3cccc(S(=O)(=O)c4ccccc4)c3)c(O)c(O)c2O)cc1 [TW-22, N-(3-Benzenesulfonyl-phenyl)-5-[2-(4-tert-butyl-phenyl)-ethyl]-2,3,4-trihydroxy-benzamide] | > 1000 |
| CC(C)c1cccc(NC(=O)c2cc(CCc3ccccc3)c(O)c(O)c2O)c1 [TW-24, N-(3-isopropyl-phenyl)-2,3,4-trihydroxy-5-phenethyl-benzamide] | > 1000 |
| CC(C)(C)c1ccc(CNC(=O)c2cc(CCc3ccccc3)c(O)c(O)c2O)cc1 [TW-25, N-(4-tert-Butyl-benzyl)-2,3,4-trihydroxy-5-phenethyl-benzamide] | > 1000 |
| O=C(Nc1ccc(Cl)c(Cl)c1)c1cc(CCc2ccccc2)c(O)c(O)c1O [TW-27] | > 1000 |
| Cc1ccccc1NC(=O)c1cc(CCc2ccccc2)c(O)c(O)c1O [TW-28] | > 1000 |
| O=C(Nc1cc(S(=O)(=O)c2ccc(Cl)cc2)ccc1Cl)c1cc(CCc2ccccc2)cc(O)c1O [TW-34, N-[2-Chloro-5-(4-chloro-benzenesulfonyl)-phenyl]-2,3-dihydroxyl-phenethyl-benzamide] | > 1000 |
